# Columns and labels:
# [1] = tested on: prostaglandin E2 (PGE2) synthesis; details: cited from earlier work
# [2] = tested on: collagen in rat pulmonary tissue; assay: Inhibition of collagen synthesis in rat pulmonary tissues (hydroxyproline); type: in vivo; details: rat pulmonary tissue treated with silica, DMSO and acanthoic acid; normal = 100%; FIG. 8
# Experimental: IL-1 and TNF-α are known as cytokines which cause fibrosis and induce collagen synthesis in rat fibroblast(Kang, H. S., et al., Korean. J. Immunol., 14, 193(1992)). For the purpose of confirming the ability of acanthoic acid to suppress the action of IL-1 and TNF-α, its inhibitory effect on the collagen synthesis in rat pulmonary fibroblast and pulmonary tissues was determined. The amount of produced collagen in the culture of rat pulmonary fibroblast was measured by an indirect ELISA method, and that of pulmonary tissue was determined by measuring the concentration of hydroxyproline and calculating the amount of collagen therefrom by using the standard curve of internal control group. Further, for the purpose of determining the amount of synthesized collagen in rat pulmonary tissues, the amount of hydroxyproline was measured as follows. 0.1 to 0.2 g of the rat pulmonary tissue was mixed with 1 ml of PBS and then crushed in a Pyrex tube(Corning, Rochester, N.Y., U.S.A.). […] The resultant was freezed in a freezer, lyophilized in a freeze-dryer(Labconco) and dissolved completely in 1 ml of distilled water. 50 μl of the resulting solution was diluted with 50 μl of distilled water in a microcentrifuge tube. […] O.D. of the sample was measured at 650 nm, and the amount of hydroxyproline in the sample was calculated by employing the standard curve of internal control group.
# [3] = tested on: IL-1 production in human monocytes and macrophages; assay: Inhibition of IL-1 production in human monocytes and macrophages (silica-stimulated, thymocyte 3H-thymidine assay); type: cell-based; details: 0.1 to 100 μg/ml; 100 μg/ml silica, 48 hours; FIG. 2
# Experimental: Normal human peripheral blood was heparin-treated and diluted with equal amount of Hank's balanced salt solution (HBSS: Ca^2+ and Mg^2+ free). The diluted blood was put into a centrifuge tube containing therein Ficoll-Hypaque(Sigma, St. Louis, Mo., U.S.A.) layer having a density of 1.077 piled up on Ficoll-Hypaque layer having a density of 1.119, and then centrifuged at 700×g for 30 minutes to obtain monocytes from the layer between Ficoll-Hypaque layer having a density of 1.077 and serum layer, and neutrophils from the layer between Ficoll-Hypaque layer having a density of 1.077 and that having a density of 1.119. The separated cells were washed twice with 4° C. HBSS(Ca^2+ and Mg^2+ free) and suspended in RPMI 1640 medium(Gibco, Grand Island, N.Y., U.S.A.) containing 10% fetal bovine serum(FBS, Hyclone, Logan, Utah, U.S.A.). The suspensions were added to the wells of 24-well incubation plate(Costar, Cambridge, Mass., U.S.A.) and incubated at 37° C. for 2 hours to obtain monocytes, macrophages and neutrophils. […] The activity of IL-1 in the dialyzate was determined in accordance with the method of Gery described in Cellular Immunology, 64, 293-303(1981) as follows. […] When the incubation was completed, the cells were collected on the glass fiber filter and the amount of incorporated ^3 H-thymidine was determined by liquid scintillation counter(Beckman).
# leukocyte migration = details: cited from earlier work
compound,measurement,setting,value
"C=C[C@@]1(C)CC=C2C(CCC3[C@](C)(C(=O)O)CCC[C@@]23C)C1 (single isomer, unassigned; (-)) [acanthoic acid, (-)-pimara-9(11),15-diene-19-oic acid]",inhibition of prostaglandin E2 (PGE2) synthesis,[1],inhibit
same,decrease of amount of synthesized collagen,[2],about 50%
same,inhibition of production of IL-1,[3],inhibited by acanthoic acid in a concentration-dependent mode
same,inhibition of leukocyte migration,leukocyte migration,inhibit the leukocyte migration
